Test results taken from patent US9481676B2, “Azepino[4,5-B]indoles and methods of use” (Medivation Technologies, Inc., priority 2008, dated 2016).

Key:
[1] = biological target: T1, human recombinant serotonin (5-Hydroxytryptamine) 5-HT6 receptor (Homo sapiens, UniProt P50406); experiment: Serotonin 5-HT6 radioligand binding ([3H]LSD); conditions: compound at 1 μM; read-out: Serotonin (1 μM) 5-HT6, percent inhibition of specific binding
T1 construct: expressed in transfected cells; host or cells: human HeLa cells
T1 sequence (P50406 whole entry): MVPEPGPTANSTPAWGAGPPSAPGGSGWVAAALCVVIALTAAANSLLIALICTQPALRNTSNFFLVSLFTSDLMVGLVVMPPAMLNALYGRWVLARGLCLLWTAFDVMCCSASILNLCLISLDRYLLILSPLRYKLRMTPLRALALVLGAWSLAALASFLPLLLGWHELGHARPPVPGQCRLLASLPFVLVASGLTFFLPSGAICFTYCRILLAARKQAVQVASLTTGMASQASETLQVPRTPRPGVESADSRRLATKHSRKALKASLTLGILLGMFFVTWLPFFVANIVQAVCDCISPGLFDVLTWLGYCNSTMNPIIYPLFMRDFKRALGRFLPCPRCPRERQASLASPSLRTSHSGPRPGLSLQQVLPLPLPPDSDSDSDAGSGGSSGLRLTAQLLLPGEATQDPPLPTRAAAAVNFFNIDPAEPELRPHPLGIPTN
In short: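 Human recombinant 5-HT6 receptor from HeLa cells incubated with 1.5 nM [3H]LSD for 120 min at 37° C in 50 mM Tris-HCl pH 7.4, 150 mM NaCl, 2 mM ascorbic acid, 0.001% BSA. Nonspecific binding defined with 5 μM serotonin; bound ligand counted after filtration.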

[2] = biological target: T2, human recombinant histamine H1 receptor (Homo sapiens, UniProt P35367); experiment: Histamine H1 radioligand binding ([3H]Pyrilamine); conditions: compound at 1 μM; read-out: Histamine Binding (1 μM) H1, percent inhibition of specific binding
T2 construct: expressed in transfected cells; host or cells: CHO cells
T2 sequence (P35367 whole entry): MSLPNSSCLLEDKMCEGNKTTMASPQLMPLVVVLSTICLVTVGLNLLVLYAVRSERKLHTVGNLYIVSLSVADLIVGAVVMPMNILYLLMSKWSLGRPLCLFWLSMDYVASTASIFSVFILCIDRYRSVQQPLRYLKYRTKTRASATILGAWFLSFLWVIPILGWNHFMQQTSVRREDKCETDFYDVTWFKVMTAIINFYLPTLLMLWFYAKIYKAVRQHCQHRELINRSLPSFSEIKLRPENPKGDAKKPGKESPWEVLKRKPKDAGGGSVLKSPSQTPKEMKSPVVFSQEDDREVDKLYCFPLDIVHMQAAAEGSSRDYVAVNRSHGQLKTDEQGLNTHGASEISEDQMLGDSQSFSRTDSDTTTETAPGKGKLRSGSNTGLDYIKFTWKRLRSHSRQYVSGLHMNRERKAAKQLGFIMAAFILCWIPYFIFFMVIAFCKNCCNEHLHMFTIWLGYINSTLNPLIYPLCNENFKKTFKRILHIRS
In short: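 Membranes from CHO cells expressing the receptor were incubated with compound and 1.2 nM [3H]pyrilamine for 180 min at 25 °C in 50 mM Tris-HCl pH 7.4 with MgCl2, NaCl and sucrose; 1 μM pyrilamine defined non-specific binding. Filter-bound radioactivity was counted.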

[3] = biological target: T3, human recombinant adrenergic α1D receptor (Homo sapiens, UniProt P25100); experiment: Adrenergic alpha1D radioligand binding ([3H]Prozosin); conditions: compound at 1 μM; read-out: Adrenergic (1 μM) α1D, percent inhibition of specific binding
T3 construct: expressed in transfected cells; host or cells: HEK-293 cells
T3 sequence (P25100 1-572): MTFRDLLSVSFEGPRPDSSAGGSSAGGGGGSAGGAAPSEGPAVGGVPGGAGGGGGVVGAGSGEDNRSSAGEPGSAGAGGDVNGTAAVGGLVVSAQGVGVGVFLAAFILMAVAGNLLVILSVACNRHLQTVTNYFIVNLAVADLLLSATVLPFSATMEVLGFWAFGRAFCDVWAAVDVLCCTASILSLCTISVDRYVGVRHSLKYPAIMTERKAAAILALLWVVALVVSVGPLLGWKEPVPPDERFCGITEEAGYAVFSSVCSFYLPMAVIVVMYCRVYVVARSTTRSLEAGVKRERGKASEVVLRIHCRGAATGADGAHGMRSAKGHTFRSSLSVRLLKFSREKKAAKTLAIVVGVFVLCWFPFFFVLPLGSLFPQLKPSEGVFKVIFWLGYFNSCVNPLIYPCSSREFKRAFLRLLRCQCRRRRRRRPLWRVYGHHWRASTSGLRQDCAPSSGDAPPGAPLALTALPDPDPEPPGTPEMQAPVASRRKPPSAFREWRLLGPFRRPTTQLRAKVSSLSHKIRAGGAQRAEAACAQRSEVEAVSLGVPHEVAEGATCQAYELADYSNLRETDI
In short: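 Membranes from HEK-293 cells expressing the human receptor in 50 mM Tris-HCl pH 7.4 were incubated 60 min at 25 °C with 0.6 nM [3H]prazosin. Nonspecific binding was defined with 10 μM phentolamine, and bound ligand measured by filtration.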

[4] = biological target: T4, human recombinant serotonin (5-Hydroxytryptamine) 5-HT2A receptor (Homo sapiens, UniProt P28223); experiment: Serotonin 5-HT2A radioligand binding ([3H]Ketanserin); conditions: compound at 1 μM; read-out: Serotonin (1 μM) 5-HT2A, percent inhibition of specific binding
T4 construct: expressed in transfected cells; host or cells: CHO-K1 cells
T4 sequence (P28223 whole entry): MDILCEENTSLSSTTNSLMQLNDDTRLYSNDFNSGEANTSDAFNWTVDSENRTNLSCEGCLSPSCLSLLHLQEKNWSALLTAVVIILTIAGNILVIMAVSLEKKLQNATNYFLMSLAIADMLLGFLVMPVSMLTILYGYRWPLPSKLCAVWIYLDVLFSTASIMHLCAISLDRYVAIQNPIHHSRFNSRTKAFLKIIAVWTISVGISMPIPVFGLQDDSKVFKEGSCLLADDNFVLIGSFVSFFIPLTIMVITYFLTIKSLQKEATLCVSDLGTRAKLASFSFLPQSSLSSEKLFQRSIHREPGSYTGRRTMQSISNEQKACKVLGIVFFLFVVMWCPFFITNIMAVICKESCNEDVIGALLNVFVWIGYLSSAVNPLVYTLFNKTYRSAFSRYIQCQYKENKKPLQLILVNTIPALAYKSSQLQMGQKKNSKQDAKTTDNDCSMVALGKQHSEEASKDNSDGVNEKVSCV
In short: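 Percent inhibition of specific [3H]ketanserin (0.5 nM) binding, filtration read-out, with compounds at ≤1 μM (1% DMSO vehicle). Receptor source: recombinant human 5-HT2A in CHO-K1 cells, 50 mM Tris-HCl pH 7.4, 60 min, 25 °C; 1 μM mianserin gives nonspecific binding.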

| Structure (SMILES) | inhibition at 1 µM [1] [%] | inhibition at 1 µM [2] [%] | inhibition at 1 µM [3] [%] | inhibition at 1 µM [4] [%] |
| --- | --- | --- | --- | --- |
| CN1CCc2c(n(CC(=O)N(C)C3CCCCC3)c3ccc(Cl)cc23)CC1 [Compound No. 74, 2-(9-chloro-2,3,4,5-tetrahydro-3-methylazepino[4,5-b]indol-6(1H)-yl)-N-cyclohexyl-N-methylacetamide] | -4 | 25 | 17 | 27 |
| Cc1ccc2c(c1)c1c(n2CC(=O)NC(C)C)CCN(C)CC1 [Compound No. 54, 2-(2,3,4,5-tetrahydro-3,9-dimethylazepino[4,5-b]indol-6(1H)-yl)-N-isopropylacetamide] | -10 | 18 | -1 | 1 |
| COc1ccc(C(O)Cn2c3c(c4cc(Cl)ccc42)CCN(C)CC3)cc1 (centres unmarked) [Compound No. 47, 2-(9-chloro-2,3,4,5-tetrahydro-3-methylazepino[4,5-b]indol-6(1H)-yl)-1-(4-methoxyphenyl)ethanol] | 77 | 100 | 97 | 99 |
| CN1CCc2c(n(CC(=O)OCc3ccccc3)c3ccc(Cl)cc23)CC1 [Compound No. 75, Benzyl-2-(9-chloro-2,3,4,5-tetrahydro-3-methylazepino[4,5-b]indol-6(1H)-yl)acetate] | -2 | 20 | 7 | 34 |
| CN1CCc2c(n(CC(O)c3ccccc3F)c3ccc(Cl)cc23)CC1 (centres unmarked) [Compound No. 40, 2-(9-chloro-2,3,4,5-tetrahydro-3-methylazepino[4,5-b]indol-6(1H)-yl)-1-(2-fluorophenyl)ethanol] | 101 | 101 | 64 | 97 |
| C/C(=C\n1c2c(c3cc(C)ccc31)CCN(C)CC2)c1ccc(F)cc1 [Compound No. 34, 6-((E)-2-(4-fluorophenyl)prop-1-enyl)-1,2,3,4,5,6-hexahydro-3,9-dimethylazepino[4,5-b]indole] | 103 | 95 | 100 | 98 |
| Cc1ccc(C(O)Cn2c3c(c4cc(Cl)ccc42)CCN(C)CC3)cn1 (centres unmarked) [Compound No. 7, 2-(9-chloro-2,3,4,5-tetrahydro-3-methylazepino[4,5-b]indol-6(1H)-yl)-1-(6-methylpyridin-3-yl)ethanol] | 36 | 101 | 69 | 80 |
| CN1CCc2c(n(CCc3ccccc3)c3ccc(Cl)cc23)CC1 [Compound No. 56, 9-chloro-1,2,3,4,5,6-hexahydro-3-methyl-6-phenethylazepino[4,5-b]indole] | 104 | 105 | 83 | 97 |
| CN1CCc2c(n(CCc3ccccn3)c3ccc(Cl)cc23)CC1 [Compound No. 8, 9-chloro-1,2,3,4,5,6-hexahydro-3-methyl-6-(2-(pyridin-2-yl)ethyl)azepino[4,5-b]indole] | 100 | 97 | 91 | 97 |
| Cc1ccc2c(c1)c1c(n2CC(=O)Nc2ccc(F)cc2)CCN(C)CC1 [Compound No. 44, N-(4-fluorophenyl)-2-(2,3,4,5-tetrahydro-3,9-dimethylazepino[4,5-b]indol-6(1H)-yl)acetamide] | 1 | 16 | 10 | 17 |
| COc1ccc(C(O)Cn2c3c(c4cc(Cl)ccc42)CCN(C)CC3)cc1F (centres unmarked) [Compound No. 67, 2-(9-chloro-2,3,4,5-tetrahydro-3-methylazepino[4,5-b]indol-6(1H)-yl)-1-(3-fluoro-4-methoxyphenyl) ethanol] | 86 | 100 | 90 | 100 |
| Cc1ccc2c(c1)c1c(n2CCc2ccccc2F)CCN(C)CC1 [Compound No. 63, 6-(2-fluorophenethyl)-1,2,3,4,5,6-hexahydro-3,9-dimethylazepino[4,5-b]indole] | 101 | 99 | 77 | 91 |
| CN1CCc2c(n(CC(O)c3ccc(Cl)cc3)c3ccc(Cl)cc23)CC1 (centres unmarked) [Compound No. 16, 2-(9-chloro-2,3,4,5-tetrahydro-3-methylazepino[4,5-b]indol-6(1H)-yl)-1-(4-chlorophenyl)ethanol] | 78 | 103 | 85 | 101 |
| CN1CCc2c(n(CCc3ccc(Cl)cc3)c3ccc(Cl)cc23)CC1 [Compound No. 30, 6-(4-chlorophenethyl)-9-chloro-1,2,3,4,5,6-hexahydro-3-methylazepino[4,5-b]indole] | 86 | 102 | 89 | 100 |
| Cc1ccc2c(c1)c1c(n2CC(O)c2ccc(F)cc2F)CCN(C)CC1 (centres unmarked) [Compound No. 59, 1-(2,4-difluorophenyl)-2-(2,3,4,5-tetrahydro-3,9-dimethylazepino[4,5-b]indol-6(1H)-yl)ethanol] | 97 | 60 | 73 | 93 |
| CN1CCc2c(n(C#Cc3ccc(F)cc3)c3ccc(Cl)cc23)CC1 [Compound No. 281, 9-chloro-6-((4-fluorophenyl)ethynyl)-3-methyl-1,2,3,4,5,6-hexahydroazepino[4,5-b]indole] | 97 | 56 | 75 | 100 |
| Cc1ccc2c(c1)c1c(n2CC(C)(O)c2ccc(Cl)cc2)CCN(C)CC1 (centres unmarked) [Compound No. 15, 2-(4-chlorophenyl)-1-(2,3,4,5-tetrahydro-3,9-dimethylazepino[4,5-b]indol-6(1H)-yl)propan-2-ol] | 82 | 100 | 72 | 101 |
